From patent US20230339970A1, “CASEIN KINASE 1 DELTA MODULATORS” (priority 2020, published 2023)

Legend:
human CSNK1D = target: T1, human CSNK1D (Homo sapiens, UniProt P48730); assay: Whole Cell nBRET CSNK1D Binding Assay; conditions: living CHO cells stably expressing human CSNK1D tagged with nanoluciferase; NanoBret tracer 130 nM; 2 hours at 37 C
T1 construct: expressed in transfected cells

[1] = target: T2, human recombinant GST cleaved CSNK1D (Homo sapiens, UniProt P48730); assay: Purified Enzyme Assay (ADP-Glo CSNK1D Kinase Assay); type: biochemical; conditions: 2 nM CSNK1D; peptide substrate 150 μM; ATP 20 μM; 45 minutes at room temperature
T2 construct: GST (cleaved yes); purchased University of Dundee clone DU 19064
T2 sequence (P48730 whole entry): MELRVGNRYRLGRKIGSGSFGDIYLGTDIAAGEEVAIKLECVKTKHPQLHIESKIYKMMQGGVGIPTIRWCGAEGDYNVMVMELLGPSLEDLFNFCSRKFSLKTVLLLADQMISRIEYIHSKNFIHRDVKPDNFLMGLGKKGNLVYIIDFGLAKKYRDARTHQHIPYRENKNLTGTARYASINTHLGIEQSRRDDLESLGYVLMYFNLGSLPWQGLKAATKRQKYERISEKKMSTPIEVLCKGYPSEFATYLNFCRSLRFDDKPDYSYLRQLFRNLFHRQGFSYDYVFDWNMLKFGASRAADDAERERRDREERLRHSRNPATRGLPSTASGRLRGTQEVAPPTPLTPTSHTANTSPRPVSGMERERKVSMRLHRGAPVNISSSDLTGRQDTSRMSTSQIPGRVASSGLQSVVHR
Method in brief: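 Percent activity derived from ADP-Glo quantification of ADP produced. Reactions: compound dose-response with human recombinant GST-cleaved CSNK1D, ATP and substrate peptide PLSRTL-pS-VASLPGL, incubated 45 min at room temperature.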

T1 sequence (P48730 whole entry): as above

Row | SMILES | IC50 (human CSNK1D) | IC50 [1]
1 | Cc1cc(-c2c(-c3ccc(F)cn3)nn3c2C[C@@]2(C3)CC2(F)F)c2c(Cl)n[nH]c2n1 (single isomer, unassigned) [Example 262, (*S)-3′-(3-Chloro-6-methyl-1H-pyrazolo[3,4-b]pyridin-4-yl)-2,2-difluoro-2′-(5-fluoropyridin-2-yl)-4′H,6′H-spiro[cyclopropane-1,5′-pyrrolo[1,2-b]pyrazole]] | 15 nM | 5 nM
2 | Cc1nc2[nH]ncc2c(-c2c(-c3ccc(F)cn3)nn3c2CC2(C3)CC2(F)F)c1F (single isomer, unassigned) [Example 263, (*R)-1′.1′-Difluoro-3-(5-fluoro-6-methyl-1H-pyrazolo[3,4-b]pyridin-4-yl)-2-(5-fluoro-2-pyridyl)spiro[4,6-dihydropyrrolo[1,2-b]pyrazole-5,2′-cyclopropane]] | 1460 nM | 54 nM
3 | Cc1nc2[nH]ncc2c(-c2c(-c3ccc(F)cn3)nn3c2CC2(C3)CC2(F)F)c1F (single isomer, unassigned) [Example 264, (*S)-1′.1′-Difluoro-3-(5-fluoro-6-methyl-1H-pyrazolo[3,4-b]pyridin-4-yl)-2-(5-fluoro-2-pyridyl)spiro[4,6-dihydropyrrolo[1,2-b]pyrazole-5,2′-cyclopropane]] | 20 nM | 4 nM
4 | Cc1nc2[nH]nc(C)c2c(-c2c(-c3ccc(F)cn3)nn3c2CC2(C3)CC2(F)F)c1F (single isomer, unassigned) [Example 265, (*R)-1′.1′-Difluoro-3-(5-fluoro-3,6-dimethyl-1H-pyrazolo[3,4-b]pyridin-4-yl)-2-(5-fluoro-2-pyridyl)spiro[4,6-dihydropyrrolo[1,2-b]pyrazole-5,2′-cyclopropane]] | 37 nM | 10 nM
5 | Cc1nc2[nH]nc(C)c2c(-c2c(-c3ccc(F)cn3)nn3c2CC2(C3)CC2(F)F)c1F (single isomer, unassigned) [Example 266, (*S)-1′1l′-Difluoro-3-(5-fluoro-3,6-dimethyl-1H-pyrazolo[3,4-b]pyridin-4-yl)-2-(5-fluoro-2-pyridyl)spiro[4,6-dihydropyrrolo[1,2-b]pyrazole-5,2′-cyclopropane]] | 337 nM | 52 nM
6 | Cc1cc(-c2c(-c3ccc(F)cc3)nn3c2[C@H]2C[C@H]2C3)c2cn[nH]c2n1 (single isomer, unassigned) [Example 277, (3b*S,4a*R)-2-(4-Fluorophenyl)-3-(6-methyl-1H-pyrazolo[3,4-b]pyridin-4-yl)-3b,4,4a,5-tetrahydrocyclopropa[3,4]pyrrolo[1,2-b]pyrazole] | 43 nM | 6 nM
7 | CC1(CF)CCc2c(-c3ccncc3)c(-c3ccc(F)cn3)nn2C1 (single isomer, unassigned) [Example 284, (*S)-6-(Fluoromethyl)-2-(5-fluoro-2-pyridyl)-6-methyl-3-(4-pyridyl)-5,7-dihydro-4H-pyrazolo[1,5-a]pyridine] | 68 nM | 6 nM
8 | C[C@@]1(CF)CCc2c(-c3ccncc3)c(-c3ccc(F)cn3)nn2C1 (single isomer, unassigned) [Example 285, (*R)-6-(Fluoromethyl)-2-(5-fluoro-2-pyridyl)-6-methyl-3-(4-pyridyl)-5,7-dihydro-4H-pyrazolo[1,5-a]pyridine] | 100 nM | 11 nM
9 | CC1(CF)CCc2c(-c3ccnc(N)c3)c(-c3ccc(F)cn3)nn2C1 (single isomer, unassigned) [Example 286, (*S)-4-[6-(Fluoromethyl)-2-(5-fluoro-2-pyridyl)-6-methyl-5,7-dihydro-4H-pyrazolo[1,5-a]pyridin-3-yl]pyridin-2-amine] | 81 nM | 4 nM
10 | CC1(CF)CCc2c(-c3ccnc(N)c3)c(-c3ccc(F)cn3)nn2C1 (single isomer, unassigned) [Example 287, (*R)-4-[6-(Fluoromethyl)-2-(5-fluoro-2-pyridyl)-6-methyl-5,7-dihydro-4H-pyrazolo[1,5-a]pyridin-3-yl]pyridin-2-amine] | 68 nM | 5 nM
11 | CC1(CF)CCc2c(-c3ccn4nccc4c3)c(-c3ccc(F)cn3)nn2C1 (single isomer, unassigned) [Example 289, (*R)-5-[6-(Fluoromethyl)-2-(5-fluoro-2-pyridyl)-6-methyl-5,7-dihydro-4H-pyrazolo[1,5-a]pyridin-3-yl]pyrazolo[1,5-a]pyridine] | 114 nM | 94 nM
12 | CC1(CF)CCc2c(-c3ccn4nccc4c3)c(-c3ccc(F)cn3)nn2C1 (single isomer, unassigned) [Example 290, (*S)-5-[6-(Fluoromethyl)-2-(5-fluoro-2-pyridyl)-6-methyl-5,7-dihydro-4H-pyrazolo[1,5-a]pyridin-3-yl]pyrazolo[1,5-a]pyridine] | 120 nM | 539 nM
13 | C[C@@]1(CF)CCc2c(-c3ccnc4[nH]nc(Cl)c34)c(-c3ccc(F)cn3)nn2C1 (single isomer, unassigned) [Example 291, (*R)-3-Chloro-4-(6-(fluoromethyl)-2-(5-fluoropyridin-2-yl)-6-methyl-4,5,6,7-tetrahydropyrazolo[1,5-a]pyridin-3-yl)-1H-pyrazolo[3,4-b]pyridine] | 6 nM | 5 nM
14 | C[C@@]1(CF)CCc2c(-c3c(F)cnc4[nH]ncc34)c(-c3ccc(F)cn3)nn2C1 (single isomer, unassigned) [Example 292, (*R)-5-Fluoro-4-[6-(fluoromethyl)-2-(5-fluoro-2-pyridyl)-6-methyl-5,7-dihydro-4H-pyrazolo[1,5-a]pyridin-3-yl]-1H-pyrazolo[3,4-b]pyridine] | 21 nM | 3 nM
15 | CC1(CF)CCc2c(-c3c(F)cnc4[nH]ncc34)c(-c3ccc(F)cn3)nn2C1 (single isomer, unassigned) [Example 293, (*S)-5-Fluoro-4-[6-(fluoromethyl)-2-(5-fluoro-2-pyridyl)-6-methyl-5,7-dihydro-4H-pyrazolo[1,5-a]pyridin-3-yl]-1H-pyrazolo[3,4-b]pyridine] | 18 nM | 2 nM
16 | [2H]C([2H])([2H])[C@@]1(C([2H])([2H])F)CCc2c(-c3c(F)cnc4[nH]ncc34)c(-c3ccc(F)cn3)nn2C1 (single isomer, unassigned) [Example 294, (*R)-5-Fluoro-4-(6-(fluoromethyl-d2)-2-(5-fluoropyridin-2-yl)-6-(methyl-d3)-4,5,6,7-tetrahydropyrazolo[1,5-a]pyridin-3-yl)-1H-pyrazolo[3,4-b]pyridine] | 23 nM | 2 nM
17 | [2H]C([2H])([2H])[C@]1(C([2H])([2H])F)CCc2c(-c3c(F)cnc4[nH]ncc34)c(-c3ccc(F)cn3)nn2C1 (single isomer, unassigned) [Example 295, (*S)-5-Fluoro-4-(6-(fluoromethyl-d2)-2-(5-fluoropyridin-2-yl)-6-(methyl-d5)-4,5,6,7-tetrahydropyrazolo[1,5-a]pyridin-3-yl)-1H-pyrazolo[3,4-b]pyridine] | 24 nM | 2 nM
18 | COCC1CCc2c(-c3cc(C)nc4[nH]ncc34)c(-c3ccc(F)cn3)nn2C1 (single isomer, unassigned) [Example 296, (*S)-4-[2-(5-Fluoro-2-pyridyl)-6-(methoxymethyl)-4,5,6,7-tetrahydropyrazolo[1,5-a]pyridin-3-yl]-6-methyl-1H-pyrazolo[3,4-b]pyridine] | 240 nM | 17 nM
19 | COCC1CCc2c(-c3cc(C)nc4[nH]ncc34)c(-c3ccc(F)cn3)nn2C1 (single isomer, unassigned) [Example 297, (*R)-4-[2-(5-Fluoro-2-pyridyl)-6-(methoxymethyl)-4,5,6,7-tetrahydropyrazolo[1,5-a]pyridin-3-yl]-6-methyl-1H-pyrazolo[3,4-b]pyridine] | 297 nM | 12 nM
20 | COCC1(F)CCc2c(-c3cc(C)nc4[nH]ccc34)c(-c3ccc(F)cn3)nn2C1 (single isomer, unassigned) [Example 298, (*S)-4-[6-Fluoro-2-(5-fluoro-2-pyridyl)-6-(methoxymethyl)-5,7-dihydro-4H-pyrazolo[1,5-a]pyridin-3-yl]-6-methyl-1H-pyrrolo[2,3-b]pyridine] | 12 nM | 2 nM
21 | COCC1(F)CCc2c(-c3cc(C)nc4[nH]ccc34)c(-c3ccc(F)cn3)nn2C1 (single isomer, unassigned) [Example 299, (*R)-4-[6-Fluoro-2-(5-fluoro-2-pyridyl)-6-(methoxymethyl)-5,7-dihydro-4H-pyrazolo[1,5-a]pyridin-3-yl]-6-methyl-1H-pyrrolo[2,3-b]pyridine] | 303 nM | 20 nM
22 | COC[C@]1(F)CCc2c(-c3ccnc4[nH]ncc34)c(-c3ccc(F)cn3)nn2C1 (single isomer, unassigned) [Example 300, (*S)-4-[6-Fluoro-2-(5-fluoro-2-pyridyl)-6-(methoxymethyl)-5,7-dihydro-4H-pyrazolo[1,5-a]pyridin-3-yl]-1H-pyrazolo[3,4-b]pyridine] | 1910 nM | 75 nM
23 | COCC1(F)CCc2c(-c3ccnc4[nH]ncc34)c(-c3ccc(F)cn3)nn2C1 (single isomer, unassigned) [Example 301, (*R)-4-[6-Fluoro-2-(5-fluoro-2-pyridyl)-6-(methoxymethyl)-5,7-dihydro-4H-pyrazolo[1,5-a]pyridin-3-yl]-1H-pyrazolo[3,4-b]pyridine] | 110 nM | 4 nM
24 | COCC1(F)CCc2c(-c3c(F)cnc4[nH]ncc34)c(-c3ccc(F)cn3)nn2C1 (single isomer, unassigned) [Example 302, (*S)-5-Fluoro-4-[6-fluoro-2-(5-fluoro-2-pyridyl)-6-(methoxymethyl)-5,7-dihydro-4H-pyrazolo[1,5-a]pyridin-3-yl]-1H-pyrazolo[3,4-b]pyridine] | 3250 nM | 132 nM
